Assay results reported in publication PMC11944477, “Isolation of Allosteric Tryptase Inhibitor from Methanol Extract of Rhubarb and Enhancement of Its Tryptase Inhibitory Activity by Compounds That Were Screened by In Silico Screening” (Molecules, 2025).

Experiments:
[1] = system: asthma patients; design: method as in PMID 31371445, PMID 10197050; conditions: clinical trial for asthma, abandoned; cited from earlier work
[2] = target: T1, Trypsin from a hog pancreas (Sus scrofa, UniProt P00761); experiment: Measurement of inhibitory activity against trypsin (Bz-L-Arg-pNA substrate, absorbance at 415 nm); format: biochemical
T1 construct: Trypsin from a hog pancreas was purchased from Nacalai Tesque; purchased Nacalai Tesque; host or cells: hog pancreas
Description: Trypsin from a hog pancreas was purchased from Nacalai Tesque, Kyoto, Japan. The activity of trypsin was measured in 200 mM Tris-HCl buffer, pH 7.8, 20 mM CaCl2 and 385 µM Benzoyl-L-arginine p-nitroanilide monohydrochloride (Bz-L-Arg-pNA·HCl) (Peptide Institute, Osaka, Japan) as a substrate. Prior to addition of the substrate, the inhibitor was preincubated with the enzyme for 10 min at room temperature to allow the establishment of the enzyme–inhibitor complex. The substrate was then added, and after incubation for 60 min at 37 °C, the enzyme activity was measured from the increase in absorbance at 415 nm. The assays were performed using a 384-well microplate and absorbance was measured using a Powerscan 4 plate reader.
(§1) The inhibitory activity against tryptase and the trypsin of leupeptin and PB8GG’ were measured at 0.1–100 µM, along with that of ellagitannins (carpinin B or carpinin E) isolated by our group at 20–50 µM. The inhibitory activity of a combination of various concentrations of PB8GG’ and 50 µM ellagitannins was also assayed.
(§2) Drawing curves of the inhibition and calculation of IC50 were performed by GraphPad Prism (Version 9.5.1).

[3] = system: Tryptase from a human lung; experiment: Kinetic analysis of tryptase inhibition (Lineweaver-Burk plot, Morrison's formula); format: biochemical
Description: (§3) Tryptase from a human lung was purchased from Sigma-Aldrich (St. Louis, MO, USA). The activity of tryptase was measured in 100 mM Tris-HCl buffer, pH 8.0, 100 mM glycerol, 0.02 mg/mL heparin sodium salt and 167 µM N-(p-Tosyl)-Gly-Pro-Lys 4-nitroanilide acetate salt (Sigma-Aldrich) as a substrate. Prior to addition of the substrate, the inhibitor was preincubated with the enzyme for 30 min at room temperature to allow the establishment of the enzyme–inhibitor complex. The substrate was then added, and after incubation for 30 min at 37 °C, the enzyme activity was measured from the increase in absorbance at 415 nm. The assays were performed using a 384-well microplate (CELLSTAR 384-well 781182, Greiner Bio-One, Kremsmünster, Austria) and absorbance was measured using a Powerscan 4 plate reader (DS pharma biomedical, Osaka, Japan). The inhibition ratio was calculated using the following equation: inhibition ratio %=1−AE+S+I−AS−AI+Ablank/AE+S−AS×100
Ki^app was calculated using the Morrison’s formula with GraphPad Prism. The mean value of Km from the kinetic analysis (described in next Section 4.5) was substituted as a constant in the formula.
For kinetic studies of tryptase, inhibition assays were carried out as described in the preceding paragraph. […] The kinetic parameters were calculated by curve fitting using GraphPad Prism.

[4] = target: T2, Tryptase from a human lung (Homo sapiens, UniProt P20231); experiment: Measurement of inhibitory activity against tryptase (chromogenic substrate, absorbance at 415 nm); format: biochemical; conditions: for IC50: inhibitor alone, 30 min preincubation, mean ± SE (n = 3)
T2 construct: Tryptase from a human lung was purchased from Sigma-Aldrich; purchased Sigma-Aldrich; host or cells: human lung tissue
Description: as §3
A(x): absorbance intensity (415 nm); E: enzyme; S: substrate; I: inhibitor; blank: buffer.
as §1, §2

T2 sequence (P20231 31-275): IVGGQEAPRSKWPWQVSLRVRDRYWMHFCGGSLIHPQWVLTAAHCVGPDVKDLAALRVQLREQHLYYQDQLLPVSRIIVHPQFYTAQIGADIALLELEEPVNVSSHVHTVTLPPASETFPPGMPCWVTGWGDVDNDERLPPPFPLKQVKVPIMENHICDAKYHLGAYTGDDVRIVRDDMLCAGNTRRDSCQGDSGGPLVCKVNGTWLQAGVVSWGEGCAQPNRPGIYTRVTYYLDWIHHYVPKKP
T1 sequence (P00761 9-231): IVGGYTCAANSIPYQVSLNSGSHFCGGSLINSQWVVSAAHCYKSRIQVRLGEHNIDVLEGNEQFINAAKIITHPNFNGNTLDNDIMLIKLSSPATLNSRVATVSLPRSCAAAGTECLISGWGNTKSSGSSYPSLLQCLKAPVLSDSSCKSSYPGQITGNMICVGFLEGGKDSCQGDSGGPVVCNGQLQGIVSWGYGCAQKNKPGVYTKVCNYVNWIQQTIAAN

| inhibitory activity against trypsin ([2]; tested at 0.1–100 µM) | mode of inhibition of tryptase ([3]; Lineweaver–Burk plot) | Ki ([3]; Morrison's formula, GraphPad Prism, read-out: inhibition constant Ki app) [µM] | inhibition of tryptase activity ([4]; at 5 μM) | inhibition of tryptase activity ([4]; at the dose of 1–3 μM) | IC50 [4] [µM] | IC50 ([2]; 10 min preincubation, mean ± SE (n = 3)) [µM] | SMILES | adverse effect in treated patients [1] |
| --- | --- | --- | --- | --- | --- | --- | --- | --- |
| – | – | – | – | – | – | – | NC(=O)[C@@H]1CCCN1C(=O)[C@H](CCCN=C(N)N)NC(=O)c1ccc2ccccc2c1O [APC-366] | caused bronchospasms |
| little inhibitory activity | mixed-type non-competitive | 5.02 ± 0.99 | clearly inhibited | very weakly inhibited | 7.78 ± 0.17 | – | O=C(O[C@@H]1Cc2c(cc(O)c(C3c4c(O)cc(O)cc4O[C@H](c4ccc(O)c(O)c4)[C@H]3OC(=O)c3cc(O)c(O)c(O)c3)c2O)O[C@@H]1c1ccc(O)c(O)c1)c1cc(O)c(O)c(O)c1 (stereo partly drawn) [PB8GG’, procyanidin B8 3,3′-di-O-gallate] | – |
| – | – | – | – | – | 14.9 ± 1.25 | 8.4 ± 0.31 | CC(=O)N[C@@H](CC(C)C)C(=O)N[C@@H](CC(C)C)C(=O)N[C@H](C=O)CCCNC(=N)N [leupeptin, reference compound] | – |
